Laboratory results taken from PubChem BioAssay AID1745844 (Carcinogenic Potency Database (CPDB), 2022).
Calls of active or inactive are those of the source. No rule for the calls is given here.

System: rodent lifetime carcinogenesis bioassay, tumor incidence TD50
Assay: carcinogenic potency in animals, long-term in vivo studies, CPDB compilation (AID 1745844)
[1] = mouse, strain B6AKF1, females, oral dosing, site: any site (literature study), lesion: several types, types named in the paper, dosed 76 weeks, study length 76 weeks
[2] = mouse, strain B6AKF1, females, oral dosing, site: liver, lesion: hepatoma, dosed 76 weeks, study length 76 weeks
[3] = mouse, strain B6AKF1, females, oral dosing, site: lung, lesion: adenoma, dosed 76 weeks, study length 76 weeks
[4] = mouse, strain B6AKF1, males, oral dosing, site: any site (literature study), lesion: several types, types named in the paper, dosed 76 weeks, study length 76 weeks
[5] = mouse, strain B6AKF1, males, oral dosing, site: liver, lesion: hepatoma, dosed 76 weeks, study length 76 weeks
[6] = mouse, strain B6AKF1, males, oral dosing, site: lung, lesion: adenoma, dosed 76 weeks, study length 76 weeks
[7] = mouse, strain B6C3F1, females, oral dosing, site: liver, lesion: hepatoma, dosed 76 weeks, study length 76 weeks
[8] = mouse, strain B6C3F1, males, oral dosing, site: any site (literature study), lesion: several types, types named in the paper, dosed 76 weeks, study length 76 weeks
[9] = mouse, strain B6C3F1, males, oral dosing, site: liver, lesion: hepatoma, dosed 76 weeks, study length 76 weeks

## Cn1cc[nH]c1=S
rat, strain Harlan, females, in feed, site: thyroid gland, lesion: follicular adenocarcinoma, dosed 104 weeks, study length 104 weeks
  TD50: 9.47 mg/kg/day
rat, strain Harlan, females, in feed, site: thyroid gland, lesion: follicular-cell adenoma, dosed 104 weeks, study length 104 weeks
  TD50: 1.57 mg/kg/day
rat, strain Harlan, males, in feed, site: thyroid gland, lesion: follicular adenocarcinoma, dosed 104 weeks, study length 104 weeks
  TD50: 37.6 mg/kg/day
rat, strain Harlan, males, in feed, site: thyroid gland, lesion: follicular-cell adenoma, dosed 104 weeks, study length 104 weeks
  TD50: 0.9 mg/kg/day

## O=C(O)CNCC(=O)O
rat, strain MRC, females, in drinking water, site: any site (literature study), lesion: several types, types named in the paper, dosed 84 weeks, study length 104 weeks
  TD50: 143 mg/kg/day (inactive)
rat, strain MRC, males, in drinking water, site: any site (literature study), lesion: several types, types named in the paper, dosed 84 weeks, study length 104 weeks
  carcinogen call: negative (inactive)

## [O]=[Bi]
rat, strain BD, both sexes, in feed, site: hypophysis, lesion: adenoma, dosed 104 weeks, study length 120 weeks
  carcinogen call: negative (inactive)
rat, strain BD, both sexes, in feed, site: mammary gland, lesion: carcinoma, dosed 104 weeks, study length 120 weeks
  carcinogen call: negative (inactive)
rat, strain BD, both sexes, in feed, site: mammary gland, lesion: fibroadenoma, dosed 104 weeks, study length 120 weeks
  TD50: 150000 mg/kg/day (inactive)

## CCCCN(CCCC)C(=S)[S-].CCCCN(CCCC)C(=S)[S-].[Ni+2]
[1]
  TD50: 0.185 mg/kg/day (inactive)
[2]
  carcinogen call: negative (inactive)
[3]
  TD50: 0.0869 mg/kg/day (inactive)
[4]
  carcinogen call: negative (inactive)
[5]
  carcinogen call: negative (inactive)
[6]
  TD50: 0.153 mg/kg/day (inactive)
mouse, strain B6C3F1, females, oral dosing, site: any site (literature study), lesion: several types, types named in the paper, dosed 76 weeks, study length 76 weeks
  TD50: 0.174 mg/kg/day (inactive)
[7]
  carcinogen call: negative (inactive)
mouse, strain B6C3F1, females, oral dosing, site: lung, lesion: adenoma, dosed 76 weeks, study length 76 weeks
  TD50: 0.174 mg/kg/day (inactive)
[8]
  TD50: 0.0283 mg/kg/day (inactive)
[9]
  TD50: 0.0509 mg/kg/day (inactive)
mouse, strain B6C3F1, males, oral dosing, site: lung, lesion: adenoma, dosed 76 weeks, study length 76 weeks
  TD50: 0.163 mg/kg/day (inactive)

## CC[C@H]1CN2CCc3cc(OC)c(OC)cc3[C@@H]2C[C@@H]1C[C@H]1NCCc2cc(OC)c(OC)cc21
mouse, strain B6C3F1, females, i.p., site: any site (literature study), lesion: several types, types named in the paper, dosed 40 weeks, study length 78 weeks
  TD50: 1.2 mg/kg/day
mouse, strain B6C3F1, females, i.p., site: lung, lesion: alveolar/bronchiolar adenoma + alveolar/bronchiolar carcinoma, dosed 40 weeks, study length 78 weeks
  TD50: 49.4 mg/kg/day
mouse, strain B6C3F1, males, i.p., site: any site (literature study), lesion: several types, types named in the paper, dosed 44 weeks, study length 78 weeks
  TD50: 0.552 mg/kg/day
mouse, strain B6C3F1, males, i.p., site: liver, lesion: hepatocellular adenoma + hepatocellular carcinoma + neoplastic nodule, dosed 44 weeks, study length 78 weeks
  TD50: 1.3 mg/kg/day
mouse, strain B6C3F1, males, i.p., site: lung, lesion: alveolar/bronchiolar adenoma + alveolar/bronchiolar carcinoma, dosed 44 weeks, study length 78 weeks
  TD50: 1.19 mg/kg/day
rat, strain Sprague-Dawley, females, i.p., site: any site (literature study), lesion: several types, types named in the paper, dosed 52 weeks, study length 83 weeks
  TD50: 0.235 mg/kg/day
rat, strain Sprague-Dawley, males, i.p., site: any site (literature study), lesion: several types, types named in the paper, dosed 52 weeks, study length 83 weeks
  TD50: 0.382 mg/kg/day

## C#C[C@]1(O)CC[C@H]2[C@@H]3CCc4cc(OC)ccc4[C@H]3CC[C@@]21C
mouse, strain CFLP, females, in feed, site: liver, lesion: hepatocellular tumor, dosed 78 weeks, study length 78 weeks
  TD50: 6.27 mg/kg/day (inactive)
mouse, strain CFLP, males, in feed, site: liver, lesion: hepatocellular tumor, dosed 78 weeks, study length 78 weeks
  TD50: 1.81 mg/kg/day (inactive)

## CC(=O)OC/C=C(C)/C=C/C=C(C)/C=C/C1=C(C)CCCC1(C)C
rat, strain F344/DuCrj, females, in drinking water, site: adrenal medulla, lesion: pheochromocytoma, malignant, dosed 104 weeks, study length 108 weeks
  TD50: 7340 mg/kg/day
rat, strain F344/DuCrj, females, in drinking water, site: adrenal medulla, lesion: pheochromocytoma, dosed 104 weeks, study length 108 weeks
  TD50: 227 mg/kg/day
rat, strain F344/DuCrj, females, in drinking water, site: liver, lesion: neoplastic nodule, dosed 104 weeks, study length 108 weeks
  TD50: 7340 mg/kg/day
rat, strain F344/DuCrj, males, in drinking water, site: adrenal medulla, lesion: pheochromocytoma, malignant, dosed 104 weeks, study length 108 weeks
  TD50: 552 mg/kg/day
rat, strain F344/DuCrj, males, in drinking water, site: adrenal medulla, lesion: pheochromocytoma, dosed 104 weeks, study length 108 weeks
  TD50: 86.4 mg/kg/day
rat, strain F344/DuCrj, males, in drinking water, site: forestomach, lesion: neoplasm, dosed 52 weeks, study length 52 weeks
  carcinogen call: negative (inactive)
rat, strain F344/DuCrj, males, in drinking water, site: liver, lesion: cholangioma, dosed 104 weeks, study length 108 weeks
  TD50: 6470 mg/kg/day
rat, strain F344/DuCrj, males, in drinking water, site: liver, lesion: neoplastic nodule, dosed 104 weeks, study length 108 weeks
  TD50: 2060 mg/kg/day
rat, strain F344/DuCrj, males, in drinking water, site: liver, lesion: several types, types named in the paper, dosed 104 weeks, study length 108 weeks
  TD50: 3670 mg/kg/day
rat, strain F344/DuCrj, males, in drinking water, site: spleen, lesion: mononuclear-cell leukemia, dosed 104 weeks, study length 108 weeks
  TD50: 548 mg/kg/day
rat, strain F344/DuCrj, males, in drinking water, site: thyroid gland, lesion: c-cell adenoma, dosed 104 weeks, study length 108 weeks
  TD50: 671 mg/kg/day
rat, strain F344/DuCrj, males, in drinking water, site: thyroid gland, lesion: several types, types named in the paper, dosed 104 weeks, study length 108 weeks
  TD50: 976 mg/kg/day

## O=C(Nc1ccc([N+](=O)[O-])cc1Cl)c1cc(Cl)ccc1O
mouse, strain B6C3F1, females, in feed, site: any site (literature study), lesion: several types, types named in the paper, dosed 78 weeks, study length 91 weeks
  carcinogen call: negative (inactive)
mouse, strain B6C3F1, males, in feed, site: any site (literature study), lesion: several types, types named in the paper, dosed 78 weeks, study length 91 weeks
  TD50: 175 mg/kg/day
rat, strain Osborne-Mendel, females, in feed, site: any site (literature study), lesion: several types, types named in the paper, dosed 78 weeks, study length 110 weeks
  TD50: 2070 mg/kg/day
rat, strain Osborne-Mendel, females, in feed, site: liver, lesion: hepatocellular adenoma + hepatocellular carcinoma + neoplastic nodule, dosed 78 weeks, study length 110 weeks
  TD50: 13300 mg/kg/day
rat, strain Osborne-Mendel, females, in feed, site: thyroid gland, lesion: c-cell adenoma + c-cell carcinoma, dosed 78 weeks, study length 110 weeks
  TD50: 6670 mg/kg/day
rat, strain Osborne-Mendel, females, in feed, site: uterus, lesion: endometrial stromal polyp, dosed 78 weeks, study length 110 weeks
  TD50: 5060 mg/kg/day (inactive)
rat, strain Osborne-Mendel, males, in feed, site: any site (literature study), lesion: several types, types named in the paper, dosed 78 weeks, study length 110 weeks
  carcinogen call: negative (inactive)

## CC(=O)C1C(=O)C=C(C)OC1=O (stereo unspecified)
[1]
  carcinogen call: negative (inactive)
[2]
  carcinogen call: negative (inactive)
[3]
  carcinogen call: negative (inactive)
[4]
  carcinogen call: negative (inactive)
[5]
  carcinogen call: negative (inactive)
[6]
  carcinogen call: negative (inactive)
mouse, strain B6C3F1, females, oral dosing, site: any site (literature study), lesion: one or several types, types not named, dosed 76 weeks, study length 76 weeks
  carcinogen call: negative (inactive)
[7]
  carcinogen call: negative (inactive)
mouse, strain B6C3F1, females, oral dosing, site: lung, lesion: several types, types named in the paper, dosed 76 weeks, study length 76 weeks
  carcinogen call: negative (inactive)
[8]
  TD50: 202 mg/kg/day (inactive)
[9]
  carcinogen call: negative (inactive)
mouse, strain B6C3F1, males, oral dosing, site: lung, lesion: several types, types named in the paper, dosed 76 weeks, study length 76 weeks
  carcinogen call: negative (inactive)

## O=NN1CCOC1=O
rat, strain MRC-Wistar, males, in drinking water, site: any site (literature study), lesion: one or several types, types not named, dosed 70 weeks, study length 70 weeks
  TD50: 0.335 mg/kg/day
rat, strain MRC-Wistar, males, in drinking water, site: intestine, lesion: several types, types named in the paper, dosed 64 weeks, study length 64 weeks
  carcinogen call: positive
rat, strain MRC-Wistar, males, in drinking water, site: intestine, lesion: several types, types named in the paper, dosed 70 weeks, study length 70 weeks
  TD50: 0.729 mg/kg/day
rat, strain MRC-Wistar, males, in drinking water, site: liver, lesion: several types, types named in the paper, dosed 64 weeks, study length 64 weeks
  TD50: 0.582 mg/kg/day
rat, strain MRC-Wistar, males, in drinking water, site: liver, lesion: several types, types named in the paper, dosed 70 weeks, study length 70 weeks
  TD50: 1.15 mg/kg/day

## O=NN1CCCN(N=O)C1
rat, strain Sprague-Dawley, males, i.p., site: paranasal sinus, lesion: squamous-cell carcinoma, dosed 104 weeks, study length 104 weeks
  TD50: 0.166 mg/kg/day

## C/C=C1/C[C@@H](C)[C@](O)(CO)C(=O)OCC2=CC[N+]3([O-])CC[C@@H](OC1=O)[C@@H]23 (stereo partly specified)
rat, strain Wistar, females, in drinking water, site: liver, lesion: hepatoma, dosed 103 weeks, study length 104 weeks
  TD50: 1.27 mg/kg/day
rat, strain Wistar, males, in drinking water, site: liver, lesion: hepatoma, dosed 103 weeks, study length 104 weeks
  TD50: 0.499 mg/kg/day

## CC[N+](=O)[O-]
rat, strain Long-Evans BLU:(LE), females, inhaled, site: liver, lesion: hepatocellular carcinoma, dosed 105 weeks, study length 105 weeks
  TD50: 2190 mg/kg/day (inactive)
rat, strain Long-Evans BLU:(LE), males, inhaled, site: liver, lesion: one or several types, types not named, dosed 105 weeks, study length 105 weeks
  carcinogen call: negative (inactive)
